Assay results from ChEMBL document CHEMBL1157662, “Antimalarial and antileishmanial activities of histone deacetylase inhibitors with triazole-linked cap group” (Bioorg Med Chem, 2010).
In brackets after ≈: the same amount, converted by molar mass. Activity calls are given as the source filed them. The rule behind the calls is not given here.

How the values were obtained:
[1] = system: Vero; experiment: Cytotoxicity against african green monkey Vero cells after 1 to 2 days by neutral red assay; assay type: ADME, cell-based, Chlorocebus sabaeus
[2] = system: Leishmania donovani; experiment: Ratio of suberoylanilide hydroxamic acid IC50 to compound IC50 for Leishmania donovani promastigotes
[3] = Selectivity index, ratio of IC50 for african green monkey (Cercopithecus aethiops) Vero cells to IC50 for chloroquine-resistant Plasmodium falciparum W2
[4] = system: Plasmodium falciparum; experiment: Ratio of suberoylanilide hydroxamic acid IC50 to compound IC50 for chloroquine-resistant Plasmodium falciparum W2 infected in […]; assay type: functional
[5] = system: Plasmodium falciparum; experiment: Ratio of suberoylanilide hydroxamic acid IC50 to compound IC50 for chloroquine-sensitive Plasmodium falciparum D6 infected in […]; assay type: functional
[6] = system: Plasmodium falciparum; experiment: microbe, parasite or virus in culture; conditions: D6, Vero, 72 h
Description: (§1) Antimalarial activity against chloroquine-sensitive Plasmodium falciparum D6 infected in African green monkey (Cercopithecus aethiops) Vero cells assessed as parasite LDH activity after 72 hrs by Malstat reagent method

[7] = system: Plasmodium falciparum; experiment: microbe, parasite or virus in culture; assay type: functional, organism-based, W2, Vero
Description: Antimalarial activity against chloroquine-resistant Plasmodium falciparum W2 infected in African green monkey (Cercopithecus aethiops) Vero cells assessed as parasite LDH activity after 72 hrs by Malstat reagent method

[8] = Selectivity index, ratio of IC50 for african green monkey (Cercopithecus aethiops) Vero cells to IC50 for chloroquine-sensitive Plasmodium falciparum D6
[9] = system: Leishmania donovani; experiment: Antileishmanial activity against Leishmania donovani promastigotes after 72 hrs by alamar blue assay; assay type: functional, organism-based
[10] = system: Leishmania donovani; experiment: Ratio of suberoylanilide hydroxamic acid IC50 to compound IC50 for Leishmania donovani promastigotes; assay type: functional
[11] = system: Leishmania donovani
[12] = system: Plasmodium falciparum; conditions: vero
Description: as §1

[13] = Chlorocebus sabaeus, Vero, read-out: IC50
[14] = Plasmodium falciparum, W2, Vero, 72 h, read-out: IC50
[15] = Leishmania donovani, 72 h, read-out: IC50

| Structure (SMILES) | IC50 [1, 13] [µg/mL] | IC50 ratio [2] | selectivity ratio [3] | Ratio IC50 [4] | Ratio IC50 [5] | IC50 [6] [µg/mL] | IC50 [7, 14] [µg/mL] | selectivity ratio [8] | IC90 ([9]; Leishmania donovani, 72 h) [µg/mL] | IC50 [9, 15] [µg/mL] | Ratio [10] | IC50 ([1]; vero) | IC90 [11] | IC50 [12] | IC50 ([7]; vero) | IC50 [9] |
| --- | --- | --- | --- | --- | --- | --- | --- | --- | --- | --- | --- | --- | --- | --- | --- | --- |
| O=C(CCCCCn1cc(-c2ccc3ccccc3n2)nn1)NO | 2.4 (≈ 7.38 µM) | 2 | 70.6 | 5 | 5 | 0.033 (≈ 0.101 µM) | 0.034 (≈ 0.104 µM) | 72.7 | 39 (≈ 120 µM) | 9.5 (≈ 29.2 µM) | 2 | – | – | – | – | – |
| COc1ccc2cc(-c3cn(CCCCCC(=O)NO)nn3)ccc2c1 | 2.85 (≈ 8.04 µM) | – | > 91.9 | 5 | 5 | 0.035 (≈ 0.0988 µM) | 0.031 (≈ 0.0875 µM) | > 81.4 | > 40 | 18 (≈ 50.8 µM) | – | – | – | – | – | – |
| O=C(CCCCCn1cc(-c2ccc3cccnc3c2)nn1)NO | – | – | > 144 | 5 | 5 | 0.0525 (≈ 0.161 µM) | 0.033 (≈ 0.101 µM) | > 90.7 | > 40 | 18.5 (≈ 56.9 µM) | – | Non-toxic | – | – | – | – |
| COc1ccc2cc(-c3cn(CCCCCCC(=O)NO)nn3)ccc2c1 | 2.65 (≈ 7.19 µM) | – | 50 | 5 | 5 | 0.0475 (≈ 0.129 µM) | 0.053 (≈ 0.144 µM) | 55.8 | > 40 | 18.5 (≈ 50.2 µM) | – | – | – | – | – | – |
| COc1cccc(-c2cn(CCCCCC(=O)NO)nn2)c1 | – | – | – | – | – | – | – | – | – | – | – | Non-toxic | inactive | Not Active | Not Active | Not Active |
